Results as given in publication PMC6273765, “Synthesis and Biological Evaluation of Novel Aromatic Imide-Polyamine Conjugates” (Molecules, 2016).

Columns and labels:
MDA-MB-231 cells = assay: MTT cytotoxicity, MDA-MB-231; type: cell-based; conditions: Homo sapiens, 48 h, mean of three experiments
HepG2 cells [1] = assay: ROS generation, DCFH-DA (HCS); type: cell-based, human; conditions: HepG2, 3, 6, 12 μM, 48 h
Procedure: It is known that polyamine conjugates may produce reactive oxygen species (ROS). The elevated ROS could bring corresponding influences on MMP loss and LYS/pH destabilization, which generally activates the cell death. Therefore, the ROS generation was detected by the DCFH-DA (2′,7′-dichlorodihydrofluorescein diacetate) experiment.
HepG2 cells were seeded in 96 well plates (6 × 10^3 cells/well), cultured for 24 h to obtain a confluent monolayer, and then treated with various concentrations of tested compounds for 48 h. Cells were incubated with Rh123 (0.25 nM), or DCFH-DA (10 μM), or Lyso-Tracker Red (50 nM ) in the dark at 37 °C for 30 min. for the measurement of mitochondrial membrane potential (MMP), or reactive oxygen species (ROS) or lysosomal mass/pH staining, respectively. After being washed with PBS to remove excess dyes, cells were further stained with the nuclear dye Hoechst 33,342 (10 μM) in the dark at 37 °C for 20 min. Images were acquired on the ArrayScan HCS reader using the Target Activation BioApplication software.

HepG2 cells [2] = assay: Lysosomal mass/pH, Lyso-Tracker Red (HCS); type: cell-based, human; conditions: HepG2, 3, 6, 12 μM, 48 h
Description: (§1) To appraise if novel naphthalimide-polyamine conjugates induce cell apoptosis, morphological study was applied after HepG2 cells were stained with AO/EB. […] To furnish more credible information about the apoptosis of HepG2 cells induced by compound 11e, we used the high content screening (HCS) technique to detect related apoptosis indicators. Mitochondria are vital cell organelles in the process of transmitting apoptosis signals, whereas the mitochondrial membrane potential (MMP) is a critical parameter related to mitochondrial function in cells. As a MMP specific cationic fluorescent dye, Rh123 is used to measure the change of MMP, which accumulates in healthy mitochondria with intact membrane potential and is absent in the depolarized mitochondria. Lysosomes, as cellular targets in cancer therapy, participate in various cell death profiles such as apoptosis and senescence. Thus, the lysosomal mass/pH (Lys/pH) variation was detected by a basic fluorescent probe Lyso-Tracker Red which selectively accumulates in acidic lysosomes during cytotoxicity occurs.
(§2) HepG2 cells were seeded in 96 well plates (6 × 10^3 cells/well), cultured for 24 h to obtain a confluent monolayer, and then treated with various concentrations of tested compounds for 48 h. […] Images were acquired on the ArrayScan HCS reader using the Target Activation BioApplication software.

K562 cells = assay: MTT cytotoxicity, K562; type: cell-based, human; conditions: Homo sapiens, K562, 48 h, mean of three experiments
H22 cells = assay: Survival time in mice bearing H22 cells (ascites); type: in vivo, Kunming mice; conditions: 11e 1 mg/kg, amonafide 5 mg/kg i.v.; for median survival time (MST): 7 consecutive days, control 12.75 ± 2.5 days
Procedure: Impacts of 11e on survival time in H22-bearing mice were evaluated by measuring the extension of the lifespan. The median survival time (MST) in control mice was (12.75 ± 2.5) days.
For calculation of the survival time, 30 male Kunming mice were inoculated via intraperitoneal (i.p.) injection with 1 × 10^6 H22 cells/mouse on day 0 and were randomly divided into three groups. […] The median survival time (MST) for each group was observed, and the antitumor activity of the drug was evaluated by measuring the increase of the lifespan. The extended lifespan rate was calculated as follows: extend rate (%) = (MST treated group/MST control group) × 100.

HepG2 cells [3] = assay: Apoptosis by AO/EB staining (HCS); type: cell-based, human; conditions: HepG2, 3, 6, 12 μM, 48 h
Description: as §1, with “Lysosomes, as cellular targets in cancer therapy, participate in various cell death profiles such as apoptosis and senescence.” left out
HepG2 cells were seeded in 96 well plates (6 × 10^3 cells/well), cultured for 24 h to obtain a confluent monolayer and then treated with various concentrations of tested compounds for 48 h. […] Images were obtained on the High Content Screening (HCS, ArrayScan, Thermo Scientific) reader using the Target Activation BioApplication software (Thermo Scientific).

HepG2 cells [4] = assay: MTT cytotoxicity, HepG2; type: cell-based, human; conditions: Homo sapiens, HepG2, 48 h, mean of three experiments
QSG-7701 cells = assay: MTT cytotoxicity, QSG-7701 normal hepatocyte; type: cell-based; conditions: QSG7701, 48 h, normal hepatocyte cell line
HCT-116 cells = assay: MTT cytotoxicity, HCT-116; type: cell-based, human; conditions: Homo sapiens, HCT-116, 48 h, mean of three experiments
[5] = system: H22 mouse hepatocellular carcinoma; assay: Subcutaneous H22 solid tumor growth inhibition; type: in vivo, Kunming mice; conditions: 11e 1 mg/kg, amonafide 5 mg/kg; for Inhibition Rate (tumor weight) / Tumor Weight: caudal vein, 7 consecutive days; for Inhibition Rate (tumor weight): vs normal saline; for Tumor Weight: control 2.17 ± 0.22 g; for No. Dead: solid tumor model
Description: However, few in vivo studies provided limited messages for rational design of the conjugates in comparison to the plentiful in vitro data. Indeed, there are significant discrepancies between in vitro and in vivo experiments in many cases. In vivo trials, based on preliminary in vitro screens, provide more valuable messages for further drug development. To further evaluate the antitumor activity of 11e in vivo, we chose three H22 (mice hepatoma cell line) tumor transplant models: solid tumor (tumor growth inhibition evaluation), ascites tumor (live time evaluation), and pulmonary metastasis tumor (tumor metastasis evaluation).
All animal care and experimentation conformed to the Guide for the Care and Use of Laboratory Animals published by Henan University (HUSOM2016-162). For solid tumor development, 30 male Kunming mice (Laboratory Animal Center of Henan, Zhengzhou, China) aged 5 weeks (weighing 18–22 g) were injected subcutaneously with 2 × 10^6 H22 cells. […] On day 16, the mice were killed by cervical vertebra dislocation, and solid tumors were removed and weighed. The inhibitory rate was calculated as follows: inhibitory rate (%) = [(A − B)/A] × 100, where A was the mean tumor weight of the control group and B was that of the drug treated or positive group.

[6] = system: H22 cells lung metastasis; assay: H22 lung metastasis model; type: in vivo, Kunming mice; conditions: 11e 1 mg/kg; for Metastatic Focus (No.) / Inhibition Rate (lung metastasis): amonafide 5 mg/kg i.v., 7 consecutive days; for Metastatic Focus (No.): control 110.04 ± 15.38; for No. Dead: amonafide 5 mg/kg, lung metastasis model; for Inhibition Rate (lung metastasis): vs normal saline
Description: Metastasis is the process by which tumors spread from the primary organ in which they arise to other sites in the body. In most cases, tumors that stay confined to one organ will not be fatal, tumors that have spread to other organs have a greater potential for causing harm. To test whether 11e was effective against an established lung metastasis, we injected H22 cells intravenously into 24 Kunming mice (5 × 10^6 cells each mouse). To ensure that all mice bore actively growing lung tumors before the drug treatment, pulmonary cancer was allowed to develop for 10 days.
H22 cells (5 × 10^6 cells per mouse) for Kunming mice were injected intravenous (i.v.) through the tail vein for tumor passive metastasis. To ensure all mice bore actively growing lung tumors before the drug treatment, pulmonary metastasis was allowed to develop for 10 days. […] On day 18, mice were killed by cervical vertebra dislocation, and lungs were removed and weighed, and then fixed in Bouin’s fluid. After the lungs were fixed, lung metastases nodus was numbered.

HepG2 cells [7] = assay: Mitochondrial membrane potential, Rh123 (HCS); type: cell-based, human; conditions: HepG2, 3, 6, 12 μM, 48 h
Description: as §1, §2

[8] = Systemic toxicity (body weight, organ index); conditions: 11e 1 mg/kg, amonafide 5 mg/kg i.v.
Procedure: However, there are few reports about the systemic toxicology of naphthalimide-polyamine conjugates to support the above hypothesis. […] At the same time, the body weight was monitored to detect the dose-limited toxicity. On day 8, these mice were killed by cervical vertebra, and the organs and tissues, including samples of heart, liver, lung, kidney, spleen and thymus, were taken for the inspection of systemic toxicity.
Mice (8 per group) received 11e (1 mg/kg) and amonfide (5 mg/kg, i.v.) for 7 consecutive days and then were sacrificed. Heart, liver, kidney, lung and spleen were removed and weighed. The organ index was investigated for systemic toxicity evaluation: organ index (%) = (organ weight/body weight) × 100.

Structure (SMILES)	IC50 (MDA-MB-231 cells) [µM]	ROS generation (DCFH-DA) (HepG2 cells [1])	Lyso-Tracker Red fluorescence (lysosomal mass/pH) (HepG2 cells [2])	IC50 (K562 cells) [µM]	life span increase vs control group (H22 cells) [fold]	median survival time (MST) (H22 cells) [days]	apoptosis induction (AO/EB) (HepG2 cells [3])	IC50 (HepG2 cells [4]) [µM]	IC50 (QSG-7701 cells) [µM]	IC50 (HCT-116 cells) [µM]	Inhibition Rate (tumor weight) [5] [%]	Tumor Weight [5] [g]	No. Dead [5]	Metastatic Focus (No.) [6]	No. Dead [6]	green fluorescence of Rh123 (MMP) (HepG2 cells [7])	liver and spleen index ([8]; 7 days, compared to controls)	body weight change ([8]; tumor-bearing mice, 7 consecutive days)	Inhibition Rate (lung metastasis) [6] [%]	Inhibition Rate (lung metastasis) ([6]; listed as amonafide) [%]
Cl.Cl.Cl.Cl.NCCCNCCCCNCCCNCC(=O)NCCCN1C(=O)c2cccc3cccc(c23)C1=O [11e, 2-(3-(4-(3-Aminopropylamino)butylamino)propylamino)-N-(3-(1,3-dioxo-1H-benzo[de]isoquinolin-2(3H)-yl)propyl)acetamide tetrahydrochloride]	12	apparently increased ROS	remarkable accruement of red fluorescence	2.86	2.41	30.75 ± 4.4	obvious apoptosis	6.33	53.9	5.12	70.92	0.63 ± 0.21	0/9	40.25 ± 8.15	0/8	significantly decreased in a dose-dependent manner	–	–	–	–
CN(C)CCN1C(=O)c2cccc3cc(N)cc(c23)C1=O [Amonafide, amonafide, reference compound]	7.98	–	–	6.31	1.53	19.5 ± 3.6	–	6.57	55.5	15.4	43.79	1.22 ± 0.13	0/9	65.25 ± 13.82	0/8	–	obviously decreased	some degree of weight loss	40.70	40.7
